Measured values taken from publication PMC9574863 (Journal of Medicinal Chemistry, 2022).
Like-named read-outs stand apart in the source and are kept apart here.

Assays:
[1] = pH 7; cited from earlier work
[2] = system: U937 cells; settings: read-out: differentiation EC50 U937 (C.L. 95%); U937, CD14/CD11b expression
Excerpt: The differentiation pathway was monitored by analyzing the expression of CD11b (APC-conjugated BD Bioscience San Jose, CA, USA) or CD14 (APC-conjugated Beckam Coulter CA, USA) via flow cytometry analysis. […] Samples were acquired on an FACSVerse (BD-Biosciences San Jose CA) and dead cells were excluded from the analyses, according to the use of propidium iodide (Sigma-Aldrich, Milan, Italy). Data were processed using Kaluza software version 1.2 (Beckman Coulter Fullerton, CA).

[3] = system: U937 cells; settings: read-out: apoptosis EC50 U937 (C.L. 95%); U937, annexin V, 3 days

SMILES | solubility [1] [µM] | EC50 [2] [µM] | EC50 [3] [µM]
CCn1c(CO)nn(-c2cc(O[C@@H](C)C(F)(F)F)c(C(=O)Nc3c(F)cccc3Cl)cc2F)c1=O [BAY2402234] | < 4 |  | 
Cc1c(-c2ccc(-c3ccccc3F)cc2)nc2ccc(F)cc2c1C(=O)O [Brequinar] |  | 0.214 | 0.262
